Laboratory results taken from ChEMBL document CHEMBL4402586, “2-Aminophenylpyrimidines as Novel Inhibitors of Aminoacyl-tRNA Synthetase Interacting Multifunctional Protein 2 (AIMP2)-DX2 for Lung Cancer Treatment” (J Med Chem, 2020).
Activity calls are given as the source filed them. No cut-off for these calls is given here.

Columns and labels:
A549 [1] = assay: Growth inhibition of human A549 cells by MTT assay; assay type: functional
NSCLC = assay: Growth inhibition of human NSCLC; assay type: functional
[2] = target: T1, Aminoacyl tRNA synthase complex-interacting multifunctional protein 2 (Homo sapiens) (UniProt Q13155); assay: Inhibition of DX2-p14/ARF interaction in human SCLC cells assessed as inhibition of cell growth by MTT assay; assay type: cell-based
T1 sequence (whole entry): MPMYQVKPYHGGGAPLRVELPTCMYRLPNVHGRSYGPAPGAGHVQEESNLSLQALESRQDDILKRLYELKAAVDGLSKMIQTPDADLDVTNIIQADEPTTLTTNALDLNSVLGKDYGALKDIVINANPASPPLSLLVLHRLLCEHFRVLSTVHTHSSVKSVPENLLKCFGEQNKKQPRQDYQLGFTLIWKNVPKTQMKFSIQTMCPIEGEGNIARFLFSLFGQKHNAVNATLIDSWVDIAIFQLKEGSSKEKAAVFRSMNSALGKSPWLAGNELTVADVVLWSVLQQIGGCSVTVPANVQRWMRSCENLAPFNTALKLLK

NCI-H460 [3] = assay: Growth inhibition of human NCI-H460 cells incubated for 72 hrs by MTT assay; assay type: functional; conditions: NCI-H460, 72 h
A549 [4] = assay: Growth inhibition of human A549 cells incubated for 72 hrs by MTT assay; assay type: functional; conditions: A549, 72 h
Calu-6 = assay: Growth inhibition of human Calu6 cells incubated for 72 hrs by MTT assay; assay type: functional; conditions: Calu-6, 72 h
NCI-H1299 = assay: Growth inhibition of human NCI-H1299 cells incubated for 72 hrs by MTT assay; assay type: functional; conditions: NCI-H1299, 72 h
[5] = Growth inhibition of human WI26 cells incubated for 72 hrs by MTT assay
NCI-H460 [6] = assay: Effect on AIMP2 DX2 isoform mRNA expression in human NCI-H460 cells at 1.2 to 10 uM by RT-PCR analysis; assay type: ADME, cell-based; conditions: nci-h460, 10 µM
NCI-H460 [7] = assay: Antitumor activity against human NCI-H460 cells xenografted in BALB/c mouse assessed as decrease in tumor size at 40 mg/kg, ip dosed every other day for 13 days; assay type: functional, organism-based
NCI-H460 [8] = assay: Antitumor activity against human NCI-H460 cells xenografted in BALB/c mouse assessed as decrease in tumor volume at 40 mg/kg, ip dosed every other day for 13 days; assay type: functional, organism-based
Mus musculus [9] = assay: Effect on tumor AIMP2 expression in BALB/c mouse xenografted with human NCI-H460 cells at 40 mg/kg, ip dosed every other day for 13 days by SDS-PAGE and Western blotting analysis; assay type: ADME, organism-based; conditions: in vivo, 312 h
[10] = Toxicity in BALB/c mouse xenografted with human NCI-H460 cells assessed effect on body weight at 40 mg/kg, ip dosed every other day for 13 days; assay type: organism-based; conditions: in vivo, 312 h
[11] = Drug level in tumor of BALB/c mouse xenografted with human NCI-H460 cells […] at 40 mg/kg, ip dosed every other day for 13 days; assay type: ADME, organism-based, Neoplasm; conditions: read-out: Drug uptake
Mus musculus [12] = species: Mus musculus; conditions: BALB/c, 40 mg/kg
Description: Inhibition of tumor AIMP2-DX2 expression in BALB/c mouse xenografted with human NCI-H460 cells at 40 mg/kg, ip dosed every other day for 13 days by SDS-PAGE and Western blotting analysis

[13] = Toxicity in BALB/c mouse xenografted with human NCI-H460 cells at 40 mg/kg, ip dosed every other day for 13 days; assay type: organism-based; conditions: in vivo, 312 h

GI50 (A549 [1])	GI50 [2]	GI50 (NCI-H460 [3])	GI50 (A549 [4])	GI50 (Calu-6)	GI50 (NCI-H1299)	SMILES	GI50 (NSCLC)	growth inhibition (GI) [5]	Activity (NCI-H460 [6])	Activity (NCI-H460 [7])	Activity (NCI-H460 [8])	Activity (Mus musculus [9])	Activity [10]	concentration at 312 h [11]	inhibition (Mus musculus [12])	Activity [13]
6.5 µM	–	–	–	–	–	CN1CCN(CCOc2cccc(Nc3nc(-c4ccc(Cl)cc4)cc(N4CCOCC4)n3)c2)CC1	–	–	–	–	–	–	–	–	–	–
–	5 to 10 µM	–	–	–	–	CC1(C)Oc2cc3oc(=O)ccc3cc2C[C@@H]1OC(=O)/C=C/c1ccco1	> 50 µM	–	–	–	–	–	–	–	–	–
–	–	0.89 µM	1.13 µM	4.22 µM	5.78 µM	CN1CCN(CCOc2cccc(Nc3nccc(-c4ccc(Cl)cc4)n3)c2)CC1	–	Non-Toxic	Non-Toxic	Active	Active	Non-Toxic	Non-Toxic	0.088 µM	Active	–
–	–	0.6 µM	2.82 µM	4.4 µM	4.18 µM	COC1CCCN(c2cc(-c3ccc(Cl)cc3)nc(Nc3cccc(OCCN4CCN(C)CC4)c3)n2)C1 (stereo not drawn)	–	Non-Toxic	Non-Toxic	Active	Active	Non-Toxic	Non-Toxic	62.7 µM	Active	Non-Toxic
